How the values were obtained:
[1] = system: enzyme associated with Bacillus stearothermophilus spores; assay: Rapid enzyme fluorescence readout of dual rapid readout indicators after prevacuum steam sterilization; assay type: biochemical; conditions: 4-pulse prevacuum steam 121° C.
In short: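 Bacillus stearothermophilus ATCC 7953 spores were coated with a sterilant-resistant chemical solution and pipetted onto paper strips at about 1×10^6 spores per strip. Each strip sat in a dual rapid readout indicator beside a crushable inner container of nutrient medium holding 4-methylumbelliferyl-alpha-D-glucoside at pH 7.6. Indicators went through a 4-pulse prevacuum steam cycle at 121° C, were activated, incubated at 60° C, and read for fluorescence on a 3M ATTEST Model 190 Rapid Autoreader.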

[2] = system: Bacillus stearothermophilus spores; assay: Spore outgrowth (color change) of indicators after prevacuum steam sterilization; assay type: cell-based; conditions: 4-pulse prevacuum steam 121° C.
In short: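 Bacillus stearothermophilus ATCC 7953 spores were cleaned, mixed into a heated sterilant-resistant coating chemical solution and pipetted onto paper strips at about 1×10^6 spores per strip. The strips were dried and placed in indicators, then exposed to a 4-pulse prevacuum steam cycle at 121° C. After exposure the media ampoule was crushed, and growth was judged visually as a purple-to-yellow color change after 168 hours at 60° C.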

[3] = system: enzyme associated with Bacillus stearothermophilus spores; assay: Rapid enzyme fluorescence readout of indicators after hydrogen peroxide plasma sterilization; assay type: biochemical; conditions: for accuracy of sterilization indicators compared to indicators made with untreated spores: 1–3 hours after exposure; for FLUORESCENCE - PERCENT POSITIVE 1 HR / FLUORESCENCE - PERCENT POSITIVE 2 HR / FLUORESCENCE - PERCENT POSITIVE 3 HR / FLUORESCENCE - PERCENT POSITIVE 4 HR / FLUORESCENCE - PERCENT POSITIVE 5 HR: 1–22 min diffusion
Protocol: (§1) Sterilization indicators for Examples 6–9 were prepared as described above with the exception that closure member 22 of the sterilization indicator was constructed of TYVEK™ high-density polyethylene fiber material, commercially available from E.I. du Pont de Nemours and Co., Wilmington, Del.
(§2) Sterilization indicators were made as described above with spores that had been coated with each of the chemicals and concentrations listed in Table 6. The indicators were placed in instrument trays and exposed to a hydrogen peroxide plasma sterilization procedure at 45–55° C. in a STERRAD™ 100SI GMP Sterilizer, obtained from Advanced Sterilization Products Co., Irvine, Calif. During the sterilization procedure a vacuum was drawn in the sterilization chamber for 5–6 minutes until the pressure was reduced to 300 mTorr. A 1.8 ml aliquot of an aqueous solution of 58–60% hydrogen peroxide was then injected into the sterilization chamber over a period of about 6 minutes, yielding an empty chamber concentration of […] hydrogen peroxide, and hydrogen peroxide vapor was allowed to diffuse throughout the chamber for 1–22 minutes at 6–10 Torr. A vacuum was then drawn, reducing the pressure to 500 mTorr and removing all detectable hydrogen peroxide vapor from the chamber.
(§3) After exposure to the sterilization procedure, the indicators were removed from the sterilizer and the inner containers containing the enzyme substrate and nutrient medium were crushed. The indicators were then incubated at 60° C. and examined for fluorescence every hour for 5 hours using a 3M™ ATTEST™ Model 190 Rapid Autoreader, commercially available from 3M Company, St. Paul, Minn. Additionally, spore growth, as indicated by a color change from purple to yellow, was determined visually after 168 hours of incubation.
(§4) The number of growth positive indicators detected after 168 hours of incubation is recorded in Table 6.
as §2, with “7.” for “6.”
as §2, with “8.” for “6.”, “chamber. […]” for “chamber.”

[4] = system: Bacillus stearothermophilus spores; assay: Spore outgrowth (color change) of indicators after hydrogen peroxide plasma sterilization; assay type: cell-based; conditions: 1–22 min diffusion
Protocol: as §1, §2, §3, §4
as §2, with “7.” for “6.”
as §2, with “8.” for “6.”, “chamber. […]” for “chamber.”

[5] = Example 4, 50 mg/ml coating, 7–18 min
[6] = Example 4, 100 mg/ml coating, 7–18 min
[7] = Example 5, 50 mg/ml coating, 7–13 min
[8] = Example 5, 100 mg/ml coating, 7–13 min

Substance | FLUORESCENCE - PERCENT POSITIVE 1 HR [1, 5] [%] | FLUORESCENCE - PERCENT POSITIVE 2 HR [1, 5] [%] | FLUORESCENCE - PERCENT POSITIVE 3 HR [1, 5] [%] | FLUORESCENCE - PERCENT POSITIVE 4 HR [1, 5] [%] | FLUORESCENCE - PERCENT POSITIVE 1 HR [1, 6] [%] | FLUORESCENCE - PERCENT POSITIVE 2 HR [1, 6] [%] | FLUORESCENCE - PERCENT POSITIVE 3 HR [1, 6] [%] | FLUORESCENCE - PERCENT POSITIVE 4 HR [1, 6] [%] | NO. GROWTH POSITIVE 168 HR [2, 5] | NO. GROWTH POSITIVE 168 HR [2, 6] | accuracy of sterilization indicators compared to indicators made with untreated spores [3] | FLUORESCENCE - PERCENT POSITIVE 1 HR ([3]; Example 8, 50 mg/ml coating) [%] | FLUORESCENCE - PERCENT POSITIVE 2 HR ([3]; Example 8, 50 mg/ml coating) [%] | FLUORESCENCE - PERCENT POSITIVE 3 HR ([3]; Example 8, 50 mg/ml coating) [%] | FLUORESCENCE - PERCENT POSITIVE 4 HR ([3]; Example 8, 50 mg/ml coating) [%] | FLUORESCENCE - PERCENT POSITIVE 5 HR ([3]; Example 8, 50 mg/ml coating) [%] | NO. GROWTH POSITIVE 168 HR ([4]; Example 8, 50 mg/ml coating) | FLUORESCENCE - PERCENT POSITIVE 1 HR ([3]; Example 8, 100 mg/ml coating) [%] | FLUORESCENCE - PERCENT POSITIVE 2 HR ([3]; Example 8, 100 mg/ml coating) [%] | FLUORESCENCE - PERCENT POSITIVE 3 HR ([3]; Example 8, 100 mg/ml coating) [%] | other results
Decaglyceral Hexaoleate | 0 | 0 | 22.2 | 55.6 | 5.6 | 16.7 | 27.8 | 33.3 | 9 | 18 | improved | – | – | – | – | – | – | – | – | – | FLUORESCENCE - PERCENT POSITIVE 1 HR ([3]; Example 6, 10 mg/ml coating): 100%; FLUORESCENCE - PERCENT POSITIVE 2 HR ([3]; Example 6, 10 mg/ml coating): 100%; FLUORESCENCE - PERCENT POSITIVE 3 HR ([3]; Example 6, 10 mg/ml coating): 100%; FLUORESCENCE - PERCENT POSITIVE 4 HR ([3]; Example 6, 10 mg/ml coating): 100%; FLUORESCENCE - PERCENT POSITIVE 5 HR ([3]; Example 6, 10 mg/ml coating): 100%; NO. GROWTH POSITIVE 168 HR ([4]; Example 6, 10 mg/ml coating): 12
Hexaglyceryl Dioleate | 0 | 0 | 0 | 0 | 0 | 0 | 0 | 0 | 7 | 23 | – | – | – | – | – | – | – | – | – | – | FLUORESCENCE - PERCENT POSITIVE 1 HR ([3]; Example 6, 50 mg/ml coating): 66.7%; FLUORESCENCE - PERCENT POSITIVE 2 HR ([3]; Example 6, 50 mg/ml coating): 100%; FLUORESCENCE - PERCENT POSITIVE 3 HR ([3]; Example 6, 50 mg/ml coating): 100%; FLUORESCENCE - PERCENT POSITIVE 4 HR ([3]; Example 6, 50 mg/ml coating): 100%; FLUORESCENCE - PERCENT POSITIVE 5 HR ([3]; Example 6, 50 mg/ml coating): 100%; NO. GROWTH POSITIVE 168 HR ([4]; Example 6, 50 mg/ml coating): 6
Decaglyceryl Dipalmitate | 7.1 | 67.9 | 89.3 | 92.9 | 34.6 | 61.5 | 69.2 | 69.2 | 28 | 26 | – | 66.7 | 74.1 | 77.8 | 77.8 | 77.8 | 27 | – | – | – | accuracy of sterilization indicators compared to indicators made with untreated spores [1]: improved
Hexaglyceryl Polyricinolate | 0 | 13.0 | 52.2 | 56.5 | 9.7 | 19.4 | 32.3 | 45.2 | 23 | 31 | – | – | – | – | – | – | – | – | – | – | FLUORESCENCE - PERCENT POSITIVE 1 HR ([3]; Example 7, 50 mg/ml coating): 83.3%; FLUORESCENCE - PERCENT POSITIVE 2 HR ([3]; Example 7, 50 mg/ml coating): 91.7%; FLUORESCENCE - PERCENT POSITIVE 3 HR ([3]; Example 7, 50 mg/ml coating): 91.7%; FLUORESCENCE - PERCENT POSITIVE 4 HR ([3]; Example 7, 50 mg/ml coating): 91.7%; FLUORESCENCE - PERCENT POSITIVE 5 HR ([3]; Example 7, 50 mg/ml coating): 91.7%; NO. GROWTH POSITIVE 168 HR ([4]; Example 7, 50 mg/ml coating): 12
Sodium POE(8) Oleyl Ether Phosphate | – | – | – | – | – | – | – | – | – | – | – | 0 | 0 | 0 | 0 | 0 | 0 | 0 | 0 | 0 | FLUORESCENCE - PERCENT POSITIVE 1 HR [1, 7]: 0%; FLUORESCENCE - PERCENT POSITIVE 2 HR [1, 7]: 0%; FLUORESCENCE - PERCENT POSITIVE 3 HR [1, 7]: 0%; FLUORESCENCE - PERCENT POSITIVE 4 HR [1, 7]: 0%; FLUORESCENCE - PERCENT POSITIVE 1 HR [1, 8]: 0%; FLUORESCENCE - PERCENT POSITIVE 2 HR [1, 8]: 0%; FLUORESCENCE - PERCENT POSITIVE 3 HR [1, 8]: 0%; FLUORESCENCE - PERCENT POSITIVE 4 HR [1, 8]: 0%; NO. GROWTH POSITIVE 168 HR [2, 7]: 6; NO. GROWTH POSITIVE 168 HR [2, 8]: 3; FLUORESCENCE - PERCENT POSITIVE 4 HR ([3]; Example 8, 100 mg/ml coating): 0%; FLUORESCENCE - PERCENT POSITIVE 5 HR ([3]; Example 8, 100 mg/ml coating): 0%; NO. GROWTH POSITIVE 168 HR ([4]; Example 8, 100 mg/ml coating): 0
Hexaglyn Di-Stearate | – | – | – | – | – | – | – | – | – | – | improved | 100 | 100 | 100 | 100 | 100 | 16 | 100 | 100 | 100 | FLUORESCENCE - PERCENT POSITIVE 1 HR ([3]; Example 8, 25 mg/ml coating): 100%; FLUORESCENCE - PERCENT POSITIVE 2 HR ([3]; Example 8, 25 mg/ml coating): 100%; FLUORESCENCE - PERCENT POSITIVE 3 HR ([3]; Example 8, 25 mg/ml coating): 100%; FLUORESCENCE - PERCENT POSITIVE 4 HR ([3]; Example 8, 25 mg/ml coating): 100%; FLUORESCENCE - PERCENT POSITIVE 5 HR ([3]; Example 8, 25 mg/ml coating): 100%; FLUORESCENCE - PERCENT POSITIVE 4 HR ([3]; Example 8, 100 mg/ml coating): 100%; FLUORESCENCE - PERCENT POSITIVE 5 HR ([3]; Example 8, 100 mg/ml coating): 100%; NO. GROWTH POSITIVE 168 HR ([4]; Example 8, 25 mg/ml coating): 16; NO. GROWTH POSITIVE 168 HR ([4]; Example 8, 100 mg/ml coating): 16

From patent US7045343B2, “Sterilization indicator test packs” (3M Innovative Properties Company, priority 1998, dated 2006)
